Each structure is given as a SMILES string. Like-named read-outs stand apart in the source and are kept apart here. Numbered stars: 1 amine (or outer) side, 2 acyl side, 3 side chain; on linkers, the order of the positions; unused ones are H or OH. Square brackets hold non-standard residues; d marks the D form. Peptide text beside a SMILES is read from it. X3 = NCCCC[C@H](N)CN([C@@H](CCCCN)C(=O)[*:2])[*:1]; Tle = CC(C)(C)[C@H](N)C(=O)O Bounds are passed on as bounds.

One data set in a line: Plasma stability assay. The data set is classed as in vitro ADME. The note with it: rat plasma at 37° C. How it is done:
Rat plasma was obtained by centrifugation of rat blood (13000 rpm, 5 min, 4° C.). […] Proteolytic degradation was quenched by adding 70 μL of acetonitrile/ethanol (1:1), 0.5% nicotinamide solution and vortexing. […] Data were analyzed using GraphPad Prism 7's one phase decay equation.

For a further data set, the target named is T1, rNTS2 receptor (Rattus norvegicus, UniProt Q63384).
T1 construct: expressed in transfected cells; host or cells: DRG-F11 cells, transient transfection, membranes
T1 sequence (Q63384 1-416): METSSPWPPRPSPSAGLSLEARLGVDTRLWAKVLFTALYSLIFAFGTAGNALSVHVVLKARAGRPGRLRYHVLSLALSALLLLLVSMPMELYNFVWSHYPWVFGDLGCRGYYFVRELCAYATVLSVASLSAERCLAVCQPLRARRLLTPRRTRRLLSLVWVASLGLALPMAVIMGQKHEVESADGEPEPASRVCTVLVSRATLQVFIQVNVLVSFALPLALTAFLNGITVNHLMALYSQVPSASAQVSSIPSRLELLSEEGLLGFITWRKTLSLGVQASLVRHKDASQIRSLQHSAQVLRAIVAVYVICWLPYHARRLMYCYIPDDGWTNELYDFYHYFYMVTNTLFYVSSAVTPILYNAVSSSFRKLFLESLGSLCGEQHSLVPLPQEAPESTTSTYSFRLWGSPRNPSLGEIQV
Kind of data set: Competitive radioligand binding assay on the rNTS2 receptor. To be noted: for inhibition at 1 µM: 1 μM macrocycle dose, read-out: NTS2 % displ at 1 μM (radiolabeled neurotensin displaced); for IC50: 125I-[Tyr3]-NT competition, rNTS2 membranes, read-out: NTS2 IC50. How it is done:
DRG-F11 cells were cultured in DMEM supplemented with 10% FBS, 100 U/mL penicillin, 100 μg/mL streptomycin, and 20 mM HEPES.
Membranes were prepared by scraping cells off the culture dish with 50 mM Tris ph 7.5 and centrifuged at 15,000 g for 5 min at 4° C. The pellet was resuspended in 10 mM Tris, 1 mM EDTA pH 7.5 and sonicated for 30 s prior to be centrifugated at 15,000 g for 30 min at 4° C. The pellet was then re-suspended in binding 9 buffer. […] All other steps in binding experiments were unchanged comparing to the one using the NTS1 receptor.

The target in data set [1] is T2, hNTS1 (β-arrestin 1 recruitment) (Homo sapiens, UniProt P30989).
T2 construct: expressed in transfected cells; host or cells: CHO-K1, transient transfection with PEI
Kind of data set: BRET biosensor assay, β-arrestin 1 recruitment. The format is cell-based. The note with it: CHO-K1 cells transiently transfected with hNTS1 and biosensors, mean ± SEM, read-out: EC50 β-arr1.
Description: CHO-K1 cells were cultured in DMEM-F12 supplemented with 10% FBS, 100 U/mL penicillin, 100 μg/mL streptomycin, and 20 mM HEPES at 37° C. in a humidified chamber at 5% CO2. Cells were seeded into T75 flasks at a density of 20 000 cells/cm^2; 24 h later, cells were transfected with plasmids coding for hNTS1-Green fluorescent protein 10(GFP10)/Rluc (Renilla Luciferase)II-β-arrestin 1 or hNTS1-GFP10/RlucII-β-arrestin2, or with hNTS1/Gαq-RlucII/Gβ1/IGFP10-Gγ1 or hNTS1/Gα13-RlucII/Gβ1/GFP10-Gγ1 using polyethylenimine (PEI). Cells were transferred into 96-well plates at a concentration of 50 000 cells/well 24 h after transfection and incubated at 37° C. overnight. […] After stimulation, coelenterazine 400A was added in each well to a final concentration of 5 μM and the plate was read using filter selected for BRET2 measurement (BRET2 High efficiency filter set, λemRlucII: 410±80 nm, λemGFP10: 515±40 nm) on a Mithras 2 plate reader (Berthold Technologies, Tennessee, USA). BRET2 ratio was determined as GFP10em/RlucIIem. […] EC50 (Effective Concentration 50) values were determined using the dose response-stimulation log(agonist) vs response (three parameters) and represent the mean±SEM of at least three separate experiments, each performed in triplicate.
NTS1 is capable of activating several signaling pathways, thus the activation of Gαq, Gα13, β-arrestin 1 and β-arrestin 2 pathways was monitored. […]

Data set [2] deals with T3, hNTS1 (β-arrestin 2 recruitment) (Homo sapiens, UniProt P30989).
T3 construct: expressed in transfected cells; host or cells: CHO-K1, transient transfection with PEI
Nature of the data set: BRET biosensor assay, β-arrestin 2 recruitment. The data set is classed as cell-based.
Description: CHO-K1 cells were cultured in DMEM-F12 supplemented with 10% FBS, 100 U/mL penicillin, 100 μg/mL streptomycin, and 20 mM HEPES at 37° C. in a humidified chamber at 5% CO2. Cells were seeded into T75 flasks at a density of 20 000 cells/cm^2; 24 h later, cells were transfected with plasmids coding for hNTS1-Green fluorescent protein 10(GFP10)/Rluc (Renilla Luciferase)II-β-arrestin 1 or hNTS1-GFP10/RlucII-β-arrestin2, or with hNTS1/Gαq-RlucII/Gβ1/IGFP10-Gγ1 or hNTS1/Gα13-RlucII/Gβ1/GFP10-Gγ1 using polyethylenimine (PEI). Cells were transferred into 96-well plates at a concentration of 50 000 cells/well 24 h after transfection and incubated at 37° C. overnight. They were then washed with PBS and 90 μL HBSS was added in each well. […] After stimulation, coelenterazine 400A was added in each well to a final concentration of 5 μM and the plate was read using filter selected for BRET2 measurement (BRET2 High efficiency filter set, λemRlucII: 410±80 nm, λemGFP10: 515±40 nm) on a Mithras 2 plate reader (Berthold Technologies, Tennessee, USA). BRET2 ratio was determined as GFP10em/RlucIIem. […] EC50 (Effective Concentration 50) values were determined using the dose response-stimulation log(agonist) vs response (three parameters) and represent the mean±SEM of at least three separate experiments, each performed in triplicate.
NTS1 is capable of activating several signaling pathways, thus the activation of Gαq, Gα13, β-arrestin 1 and β-arrestin 2 pathways was monitored. The ability of compounds of the invention to activate the NTS1 receptor was assessed using Bioluminescence Resonance Energy Transfer (BRET)-based biosensors, reporting the dissociation of G proteins (Table III, column EC50 Gq) and the recruitment of β-arrestins to the receptor (Table III, column EC50 βarr).

The next data set concerns the target hNTS1 receptor (Homo sapiens, UniProt P30989). Kind of data set: Competitive radioligand binding assay on the hNTS1 receptor. The note with it: 125I-[Tyr3]-NT competition, hNTS1 membranes; mean ± SEM; read-out: NTS1 IC50.
In the next data set the test system is rats. Kind of data set: Blood pressure (hypotension). The data set is classed as in vivo, rat. The note with it: 0.01 mg/kg; for Arterial blood pressure response / Blood pressure drop, first phase / Blood pressure in phase 3: rat, i.v. How it is done: Mean, systolic and diastolic arterial blood pressure and a heart rate were measured through a catheter (PE 50 filled with heparinized saline) inserted in the right carotid artery and connected to a Micro-Med™ transducer (model TDX-300, USA) linked to a blood pressure Micro-Med™ analyzer (model BPA-100c). Another catheter (PE 10 filled with heparinized saline) was inserted in the left jugular vein for injection of test compounds at 0.01 mg/kg (volume 1 mL/kg, 5-10 s) or 0.9% saline. Blood pressure was recorded each second for up to 900 seconds following intravenous injection.

Setting [3] is: 24 h is the longest time tested.
Setting [4] is: BRET, CHO-K1 cells transiently transfected with hNTS1 and biosensors, mean ± SEM, read-out: EC50 β-arr2.

T3 sequence (P30989 whole entry): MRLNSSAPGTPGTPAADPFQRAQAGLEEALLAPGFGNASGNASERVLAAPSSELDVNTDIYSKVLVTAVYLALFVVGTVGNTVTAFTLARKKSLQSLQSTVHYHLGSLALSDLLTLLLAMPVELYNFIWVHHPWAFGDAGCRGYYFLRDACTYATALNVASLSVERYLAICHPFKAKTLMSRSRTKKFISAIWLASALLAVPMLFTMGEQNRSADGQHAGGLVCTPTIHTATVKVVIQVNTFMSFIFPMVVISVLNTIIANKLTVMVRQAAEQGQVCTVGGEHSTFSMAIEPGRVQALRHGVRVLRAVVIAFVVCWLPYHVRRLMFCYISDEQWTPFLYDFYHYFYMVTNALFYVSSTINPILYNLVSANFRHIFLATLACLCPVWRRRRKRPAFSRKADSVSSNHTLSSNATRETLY
T3 sequence (P32121 whole entry partner): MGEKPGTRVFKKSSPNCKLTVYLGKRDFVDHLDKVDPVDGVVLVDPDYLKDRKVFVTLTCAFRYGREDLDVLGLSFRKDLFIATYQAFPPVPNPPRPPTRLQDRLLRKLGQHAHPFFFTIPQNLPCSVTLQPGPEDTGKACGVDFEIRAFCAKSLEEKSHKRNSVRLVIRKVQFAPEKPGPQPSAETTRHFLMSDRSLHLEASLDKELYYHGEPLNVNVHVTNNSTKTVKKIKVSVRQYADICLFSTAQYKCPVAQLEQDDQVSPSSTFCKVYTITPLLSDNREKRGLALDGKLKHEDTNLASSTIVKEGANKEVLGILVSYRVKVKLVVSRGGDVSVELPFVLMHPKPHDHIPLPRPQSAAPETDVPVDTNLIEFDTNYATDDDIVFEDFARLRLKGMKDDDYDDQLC
Chain of hNTS1 receptor (P30989 whole entry): as the sequence (P30989 whole entry) above
T2 sequence (P30989 whole entry): as above
T2 sequence (P49407 whole entry partner): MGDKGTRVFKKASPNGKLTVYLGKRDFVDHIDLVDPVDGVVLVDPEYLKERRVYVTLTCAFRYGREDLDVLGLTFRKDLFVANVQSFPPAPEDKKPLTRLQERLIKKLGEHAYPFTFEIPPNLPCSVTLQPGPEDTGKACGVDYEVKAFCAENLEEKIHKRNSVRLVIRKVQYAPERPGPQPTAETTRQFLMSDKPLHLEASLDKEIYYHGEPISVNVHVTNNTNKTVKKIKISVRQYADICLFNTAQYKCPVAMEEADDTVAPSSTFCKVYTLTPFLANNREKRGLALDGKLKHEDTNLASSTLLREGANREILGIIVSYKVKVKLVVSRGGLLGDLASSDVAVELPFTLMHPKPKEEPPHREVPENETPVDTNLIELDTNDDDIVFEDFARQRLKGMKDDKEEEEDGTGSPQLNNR
Description for hNTS1 receptor: CHO-K1 (Chinese Hamster Ovary) cells stably expressing hNTS1 (ES-690-C from PerkinElmer, Montréal, Canada) were cultured in DMEM F12 culture medium at 37° C. in a humidified chamber under 5% CO2. Culture media were supplemented with 10% FBS, 100 U/mL penicillin, 100 μg/mL streptomycin, 20 mM HEPES, and 0.4 mg/mL G418 at 37° C.
Cells were frozen when they reached 80% confluency. They were scrapped off the dish with 10 mM Tris buffer, 1 mM EDTA, pH 7.5 and centrifuged at 15,000 g for 5 min at 4° C. The pellet was then re-suspended in binding buffer.
Competitive radioligand binding experiments were performed by incubating 15 μg of cell membranes expressing the hNTS1 receptor with 45 pM of ^125I-[Tyr^3]-NT (2200 Ci/mmol purchased from PerkinElmer, Billerica, Mass.) in binding buffer (50 mM Tris-HCl, pH7.5, 0.2% BSA) in the presence of increasing concentrations of the compounds of the invention ranging from 10^−11 to 10^−4 M for 60 min at 25° C. […] Glass filters were then counted using a γ-counter (2470 Wizard2, PerkinElmer, Missisauga, Ontario, Canada).
IC50 (Inhibitory Concentration 50) values were determined from the competition curves as the unlabeled ligand concentration inhibiting half of the ^125I-[Tyr]-NT-specific binding. […]

The compound `CCC(C)[C@H](NC(=O)[C@@H]1Cc2ccc(O)c(c2)CC=CCNCC[C@H](N)C(=O)N[C@@H](CCCCN)C(=O)N2CCC[C@H]2C(=O)N1)C(=O)N[C@@H](CC(C)C)C(=O)O` (stereo partly drawn) [Compound 8, c[Dab(All)KPY(All)]IL] gave a half-life at […] in “Plasma stability assay” (setting [3]) of 2.5 h. At rNTS2 receptor, the inhibition at 1 µM stood at 64%.

Consider `CCC(C)[C@H](NC(=O)[C@@H]1Cc2ccc(O)c(c2)CC=CCNCCCCCC(=O)N[C@@H](CCCCN)C(=O)N2CCC[C@H]2C(=O)N1)C(=O)N[C@@H](CC(C)C)C(=O)O` (stereo partly drawn) [Compound 6, c[aminohex-6-enoic acid(All)KPY(All)]IL], for which the figures for the EC50 in data set [1] and in data set [2] (setting [4]) were 96 ± 0.07 nM and 96 ± 0.05 nM, respectively. The Plasma half-life in “Plasma stability assay” (setting [3]) turned out to be 24 h. The inhibition at 1 µM on rNTS2 receptor worked out at 93%. The IC50 at hNTS1 receptor was 500 ± 22 nM.

In turn, `CCC(C)[C@H](NC(=O)[C@@H]1Cc2ccc(O)c(c2)CC=CCN(S(=O)(=O)c2ccccc2[N+](=O)[O-])CCCC[C@H](N)C(=O)N[C@@H](CCCCN)C(=O)N2CCC[C@H]2C(=O)N1)C(=O)N[C@@H](CC(C)C)C(=O)O` (stereo partly drawn) [Compound 5, c[K(All)(S(O)2(o-nitrophenyl))KPY(All)]IL] gave a half-life at […] in “Plasma stability assay” (setting [3]) of 1.4 h. On rNTS2 receptor, the inhibition at 1 µM is 96% and the IC50 turned out to be 511 nM.

On to `C=CCNCCCC[C@H](N)C(=O)N[C@@H](CCCCN)C(=O)N1CCC[C@H]1C(=O)N[C@@H](Cc1ccc(O)c(CC=C)c1)C(=O)N[C@H](C(=O)N[C@@H](CC(C)C)C(=O)O)C(C)CC` (stereo partly drawn) [Compound 2-L, K(All)KPY(All)IL], for which the Plasma half-life in “Plasma stability assay” was found to be 0.083 h.

As to `CCC(C)[C@H](NC(=O)[C@@H]1Cc2ccc(O)c(c2)CC=CCCCCCCC(=O)N[C@@H](CCCNC(=N)N)C(=O)N2CCC[C@H]2C(=O)N1)C(=O)N[C@@H](CC(C)C)C(=O)O` (stereo partly drawn) [Compound 11, c[nonenoic acid-RPY(All)]IL], the inhibition at 1 µM at rNTS2 receptor came out at 78%.

In turn, `C=CCNCCCC[C@H](N)C(=O)N[C@@H](CCCCN)C(=O)N1CCC[C@H]1C(=O)N[C@@H](Cc1ccc(O)c(CC=C)c1)C(=O)N[C@H](C(=O)N[C@@H](CC(C)C)C(=O)O)C(C)CC` (stereo partly drawn) [Compound 1-L, nonenoic acid KPY(All)IL] registered a Plasma half-life in “Plasma stability assay” (setting [3]) of 4 h.

For `CCC(C)[C@H](NC(=O)[C@@H]1Cc2ccc(O)c(c2)CC=CCCCCCC[C@](C)(N)C(=O)N[C@@H](CCCCN)C(=O)N2CCC[C@H]2C(=O)N1)C(=O)N[C@@H](CC(C)C)C(=O)O` (stereo partly drawn) [Compound 3, c[OctenylAKPY(All)]IL], the Plasma half-life in “Plasma stability assay” (setting [3]) worked out at 24 h. Besides, it took 28 ± 0.1 nM to reach a half-maximal effect in data set [2] (EC50). Further, in the data set with rats, the “Hypotension (I.V.)” value was “Triphasique”; the “Arterial blood pressure response” value is “triphasic”; the “Blood pressure drop, first phase” value was “about −25 mmHg”; the “Blood pressure in phase 3” value is given as “slowly returned towards baseline”. On rNTS2 receptor, the inhibition at 1 µM worked out at 96% and the IC50 was 25.8 nM.

Take `CCOC(=O)[C@H](CC(C)C)NC(=O)[C@@H](NC(=O)[C@H](Cc1c[nH]c2ccccc12)NC(=O)[C@@H]1CCCN1C(=O)[C@H](CCCCN)NC[C@@H](N)CCCCN)C(C)(C)C` [PD149163, H-Lys-[ψCH2NH]-Lys-Pro-Trp-tertLeu-Leu-OEt, reference compound] (H-[X3]PW[Tle]L-OEt): in the data set with rats, the “Arterial blood pressure response” value is “triphasic”; the “Blood pressure drop, first phase” value is “about −25 mmHg”; the “Blood pressure in phase 3” value was “more sustained”.

In the data set “Plasma stability assay”, `CCC(C)[C@H](NC(=O)[C@@H]1Cc2ccc(O)c(c2)CC=CCCNCCCC[C@H](N)C(=O)N[C@@H](CCCCN)C(=O)N2CCC[C@H]2C(=O)N1)C(=O)N[C@@H](CC(C)C)C(=O)O` (stereo partly drawn) [Compound 9, c[K(butenyl)KPY(All)]IL] showed a half-life at […] of 0.25 h. Besides, the inhibition at 1 µM at rNTS2 receptor was determined as 104%.

As for `CCC(C)[C@H](NC(=O)[C@H]1Cc2ccc(O)c(c2)CC=CCCCCCC[C@](C)(N)C(=O)N[C@@H](CCCCN)C(=O)N2CCC[C@H]2C(=O)N1)C(=O)N[C@@H](CC(C)C)C(=O)O` (stereo partly drawn) [Compound 12, c[OctenylAKPY(All)]IL], the figures for the IC50 on rNTS2 receptor and at hNTS1 receptor were 1100 nM and above 10000 nM, respectively.

In “Plasma stability assay” (setting [3]), `CCC(C)[C@H](NC(=O)[C@@H]1Cc2ccc(O)c(c2)CC=CCCCCCCC(=O)N[C@@H](CCCCN)C(=O)N2CCC[C@H]2C(=O)N1)C(=O)NC(CC(C)C)C(=O)O` (stereo partly drawn) [Compound 1, c[nonenoic acid KPY(All)]IL] gave a half-life at […] of 12 h. Moreover, in data set [2] (setting [4]), the EC50 was 1370 ± 126 nM.

In “Plasma stability assay”, `CCC(C)[C@H](NC(=O)[C@H](Cc1ccc(O)cc1)NC(=O)[C@@H]1CCCN1C(=O)[C@H](CCCNC(=N)N)NC(=O)[C@@H](N)CCCNC(=N)N)C(=O)N[C@@H](CC(C)C)C(=O)O` (stereo partly drawn) [NT 8-13, RRPYIL, reference compound] registered a half-life at […] of 0.05 h. In addition, the inhibition at 1 µM at rNTS2 receptor was found to be 100%.

As for `CCC(C)[C@H](NC(=O)[C@@H]1Cc2ccc(O)c(c2)CC=CCNCCCC[C@@H](N)C(=O)N[C@@H](CCCCN)C(=O)N2CCC[C@H]2C(=O)N1)C(=O)N[C@@H](CC(C)C)C(=O)O` (stereo partly drawn) [Compound 4, c[K(All)KPY(All)]IL], the Plasma half-life in “Plasma stability assay” (setting [3]) was 24 h. The inhibition at 1 µM at rNTS2 receptor was found to be 93%.

On to `CCC(C)[C@H](NC(=O)[C@@H]1Cc2ccc(O)c(c2)CC=CCCCNCCCC[C@H](N)C(=O)N[C@@H](CCCCN)C(=O)N2CCC[C@H]2C(=O)N1)C(=O)N[C@@H](CC(C)C)C(=O)O` (stereo partly drawn) [Compound 10, c[K(pentenyl)KPY(All)]IL], for which the half-life at […] in “Plasma stability assay” is 0.3 h. On rNTS2 receptor, the inhibition at 1 µM turned out to be 105%.

For orientation: half-life means the time in which the quantity being followed falls by half. For orientation: EC50 means the concentration needed to bring the measured effect to its halfway point. For orientation: IC50 means the midpoint of a concentration-inhibition curve.

The values above are taken from patent publication US11591366B2, “Macrocyclic compounds and methods of preventing or treating pain” (SOCPRA SCIENCES SANTÉ ET HUMAINES S.E.C., priority 2017, dated 2023).
